The values below come from patent US20220062245A1, “AGENT FOR IMPROVING INFERTILITY, RECURRENT MISCARRIAGE, AND STATE OF PREGNANCY” (priority 2018, published 2022).

Entries after “also recorded” stand apart in the source; their conditions may differ.

The test system of data set [1] is RPL (recurrent pregnancy loss) patient. Conditions: cited from earlier work; for Outcome of earlier treatment: low-dose aspirin, heparin, prednisolone 5 mg/day, large-quantity γ-globulin 1 g/kg for 3 days, given in this order.
The next data set deals with NK cells. The experiment in a line: NK cell activity during pregnancy (Example 4). Type of data set: in vivo, human. The conditions noted are these: Example 4 patient during pregnancy, tacrolimus 1 mg/day; normal value 18% to 40%; FIG. 8.
Data set [2] relates to Th1 and Th2 cells among CD4-positive cells. The experiment in a line: Analysis of Th1 cells and Th2 cells in patient blood by flow cytometry. Type of data set: in vivo, human. As for the experimental part: Analysis of Th1 Cells and Th2 Cells
For the purpose of evaluating the baseline value of the Th1/Th2 cell ratio, a total of 10 ml of venous blood was collected. Th1 cells and Th2 cells were determined by detecting the production of intracellular interferon (IFN)-γ and IL-4.
Specific staining of lymphocytes was performed by incubating whole blood together with anti-CD4-PC5 or anti-CD8-PC5-conjugated monoclonal antibody (mAbs) (Beckman Coulter, Inc., Fullerton, Calif., USA). Red blood cells (RBCs) were removed by hemolysis (using FACS Lysing solution; Becton, Dickinson and Company, BD 134 Biosciences, Franklin Lake, N.J., USA), and lymphocytes were analyzed using flow cytometry (FACSCalibur; Becton, Dickinson and Company). Activated whole blood samples were surface-stained using anti-CD4-PC5-conjugate mAbs, and then RBC hemolysis and specific intracellular staining using Fast Immune (trademark) IFN-γ-FITC/IL-4-PE (Becton, Dickinson and Company) were carried out in sequence according to the manufacturer's instructions for use. Th1 cells were defined as CD4^+ lymphocytes accompanied by intracellular IFN-γ but not by intracellular IL-4. Th2 cells were detected as CD4^+ lymphocytes accompanied by intracellular IL-4 but not by intracellular IFN-γ. The ratio of intracellular IFN-γ-positive Th cells with respect to intracellular IL-4-positive Th cells was expressed as the Th1/Th2 cell ratio.

Data set [3] can be described thus: Concentration of tacrolimus in the cord blood by chemiluminescence immunoassay (ECLIA). Type of data set: in vivo, human. The conditions noted are these: at delivery, mother on 5 mg/day oral.
The test system of data set [4] is patient having a medical history of pregnancy-induced hypertensive nephropathy and HELLP syndrome. The experiment in a line: Prevention or delay of onset of pregnancy-induced hypertension syndrome, HELLP syndrome and eclampsia (Example 4, Table 1). Type of data set: in vivo, human. From the text: A patient is a person having a medical history of pregnancy-induced hypertensive nephropathy and HELLP syndrome. […] After the delivery, pulmonary edema, disseminated intravascular coagulation (DIC), and intraperitoneal bleeding, all of which are severe complications, were recognized, and the patient received treatments such as management using an artificial respirator, supplement of albumin, and blood component transfusion.
This time, in the hematologic examination findings before pregnancy, there were no abnormalities in all of the liver function, kidney function, and coagulation function, and abnormal findings were not observed in the examination items involved in infertility such as antiphospholipid antibody syndrome (anti-CL-IgG antibody, anti-CL-IgM antibody, anti-PS/PT antibody, anti-CL-β2GP1 antibody, LAC, anti-PE-IgG antibody, and anti-PE-IgM antibody), autoimmune diseases (anti-DNA antibody and antinuclear antibody), and coagulation dysfunction.
The circumstances of the first pregnancy and the pregnancy of this time are described in Table 1.
The ratio of Th1 (CD4g^+IFN-g^+)/Th2(CD4^+IL-4^+) in CD4-positive cells is 15.2/2.1 (normal value: less than 10.3), and clear immunological abnormalities were also not observed before pregnancy [Reference Literature 12b]; however, it was assumed that after implantation of a fertilized ovum, immunity of the mother's body would be activated, and immune abnormality between the mother's body and the fetus would suppress placental construction and functions thereof, causing fetal growth restriction and hypertension during pregnancy. Considering this, the patient was treated with 1 mg/day of tacrolimus from week 4 of pregnancy, for the purpose of controlling the immunity between the mother's body and the fetus after confirmation of pregnancy.
In this case, monotherapy was carried out with 1 mg/day of tacrolimus from the early stage of pregnancy, and combined treatment of low dose aspirin (LDA) intended for HDP prevention by bloodstream improvement was not carried out [Reference Literature 13b]. Regarding the pregnancy progress, there was no problem in the second trimester of pregnancy, where the patient developed HELLP syndrome in the previous pregnancy, and pregnancy progressed smoothly to the third trimester of pregnancy; however, the patient rapidly acquired HELLP syndrome similarly to the previous pregnancy, after week 33 of pregnancy.

Data set [5] relates to patients with five consecutive incidences of RIF (repeated implantation failure). The conditions noted are these: treated from two days before embryo transplantation to day of pregnancy test; daily dose by Th1/Th2 cell ratio; 16/25 versus 0% (0/17) untreated; cited from earlier work.
Data set [6] relates to patient suffering from a blood type incompatible pregnancy with negative maternal Rho (D) and positive fetal Rho (D). As to the kind of experiment: Pregnancy course and fetal/neonatal outcome in blood type incompatible pregnancy treated with tacrolimus (Example 1). Type of data set: in vivo, human. An excerpt:
(§1) The patient is a person having blood type A. The patient suffering from a blood type incompatible pregnancy with negative maternal Rho (D) and positive fetal Rho (D) was subjected to the following treatments. That is, at the time of the first pregnancy, anti-D immunoglobulin was not administered during pregnancy, sensitization was effected before delivery, and the anti-D antibody titer at the time of delivery was 8-fold. In week 39, they gave birth by emergency cesarean section due to placental abruption of the upper placenta.
Two years later, […] hoped to have a second child but suffered from infecundity and was treated for sterility by in vitro fertilization; however, since the treatment was unsuccessful after five embryo transplantations, a close examination of the immune system was conducted. At that time, a marked increase (24.9) in the Th1/Th2 (Th1 32.4, Th2 1.3) ratio was recognized, the illness was judged as infecundity considered to be caused by an abnormality in the immune system, and a tacrolimus treatment was selected.
(§2) The anti-D antibody titer obtained immediately after the establishment of pregnancy was 4-fold; however, the titer reached 16-fold in week 24 and reached 32-fold in week 26 (FIG. 6, upper part). After that, migration of fetal antigens to the mother's body via the placenta was assumed to further increase, and preparation of plasmapheresis and fetal blood transfusion was initiated in preparation for a rapid increase in the antibody titer.
(§3) Furthermore, the blood flow velocity in the middle cerebral artery and the estimated body weight of the fetus were measured by fetal ultrasonography.

The test system is the same in data set [7]. The experiment in a line: Anti-D antibody titer by indirect Coombs test, Example 1 patient. Type of data set: in vivo, human. The conditions noted are these: for Anti-D antibody titer: maternal blood, tacrolimus 4 mg/day oral. As for the experimental part:
Measurement of Anti-D Antibody Titer
The measurement is carried out by the indirect Coombs test. The indirect Coombs test is a test in which an anti-immunoglobulin antibody is added to a mixture of the blood serum of a patient and the blood of a healthy person to examine whether a hemagglutination reaction occurs (any irregular antibody present in the blood serum is detected) (for the Coombs test, see Nissan Women's Journal Vol. 59, No. 10, N-617-N-623).
as §1, §2, §3

Setting [8] is: pregnancy of this time, tacrolimus 1 mg/day, after parturition.
The mark [9] stands for this setting: pregnancy of this time, tacrolimus 1 mg/day, before parturition.
Setting [10] is: tacrolimus 1 mg/day, after parturition.
[11] abbreviates: tacrolimus 1 mg/day, before parturition.

In the case of `CC(=O)Oc1ccccc1C(=O)O` [aspirin], the “Outcome of earlier treatment” value in data set [1] is given as “not successful”.
In the case of `C[C@]12C=CC(=O)C=C1CC[C@@H]1[C@@H]2[C@@H](O)C[C@@]2(C)[C@H]1CC[C@]2(O)C(=O)CO` [prednisolone], the “Outcome of earlier treatment” value in data set [1] is reported as “not successful”.
Consider `C=CCC1/C=C(\C)CC(C)CC(OC)C2OC(O)(C(=O)C(=O)N3CCCCC3C(=O)OC(/C(C)=C/C3CCC(O)C(OC)C3)C(C)C(O)CC1=O)C(C)CC2OC` (stereo not drawn) [tacrolimus, 17-Allyl-1,14-dihydroxy-12-[2-(4-hydroxy-3-methoxycyclohexyl)-1-methylvinyl]-23,25-dimethoxy-13,19,21,27-tetramethyl-11,28-dioxa-4-azatricyclo[22.3.1.04,9]octacos-18-ene-2,3,10,16-tetraone], for which, in data set [1] (tacrolimus 2 mg/day continuously during pregnancy, no other treatments), the Pregnancy progress result was “favorable pregnancy progress”. In addition, the NK cell activity entry with NK cells was “decreased in the second trimester of pregnancy and then conspicuously increased in the examination in week 32 of pregnancy; also recorded: decreased in the second trimester and then conspicuously increased from week 32 of pregnancy”. Moreover, the Th1 entry in data set [2] (Example 1 patient, week 28 of pregnancy, on tacrolimus 4 mg/day) is given as “tendency of increase again”. In addition, in data set [2] (Example 4 patient during pregnancy, tacrolimus 1 mg/day, FIG. 8), the “Ratio (proportions) of Th1 and Th2 cells among CD4-positive cells” value is “continuously decreased”. The “Concentration of tacrolimus in the cord blood” value in data set [3] is listed as “lower than or equal to the detection limit value”. Moreover, the “Information on fetus: Fetal growth” value in data set [4] (pregnancy of this time, tacrolimus 1 mg/day from week 4) is listed as −1.9 SD. Besides, the “Information on fetus: Body weight” value in data set [4] (pregnancy of this time, tacrolimus 1 mg/day from week 4, at birth) amounted to 1490 g. In data set [4] (setting [8]), the Complications after parturition result is reported as “None”, the “Symptoms: Edema” value is recorded as “Negligible” and the “Symptoms: Hypertension” value is listed as “Temporary”. Moreover, in data set [4] (setting [9]), the “Proteinuria initiated (weeks of pregnancy)” value is reported as 33 weeks of pregnancy and the “Symptoms: Edema” value is “Negligible”. The “Delay of onset of HELLP syndrome compared to the previous pregnancy” value in data set [4] (single administration of tacrolimus 1 mg/day, previous pregnancy untreated) is “about 13 weeks”. The “Proteinuria, edema, and hypertension during pregnancy progress” value in data set [4] (tacrolimus 1 mg/day monotherapy from week 4 of pregnancy) is given as “not observed until week 32 of pregnancy”. In addition, in data set [4] (setting [10]), the “Blood examination: ALT” value is given as 833 U/L, the “Blood examination: AST” value was 898 U/L, the “Blood examination: Cr” value worked out at 0.59 mg/dL and the “Blood examination: Hb” value worked out at 10.5 g/dL. For the same compound, in data set [4] (setting [10]), the “Blood examination: LDH” value stood at 1995 U/L, the Blood examination: Plt was 2.2 10^4/µL and the Blood examination: WBC is 8220 µL⁻¹. Also, in data set [4] (setting [11]), the “Blood examination: ALT” value was determined as 71 U/L, the “Blood examination: AST” value came to 65 U/L, the “Blood examination: Cr” value came out at 1 mg/dL and the “Blood examination: Hb” value was 11 g/dL. Besides, in data set [4] (setting [11]), the “Blood examination: LDH” value is 316 U/L, the Blood examination: Plt is 10 10^4/µL and the Blood examination: WBC was 8280 µL⁻¹. In addition, the Clinical pregnancy rate in data set [5] is recorded as 64.0%. For the same compound, the “Body weight of child at birth” value in data set [6] (Example 1, tacrolimus 4 then 5 mg/day) was found to be 2834 g. For the same compound, the “Body weight of the fetus in the weeks of pregnancy” value in data set [6] (FIG. 7, estimated by fetal ultrasonography) was “smoothly increased”. The “Malformations of the child” value in data set [6] (child exposed in utero to tacrolimus 4 to 5 mg/day) was “no external malformations or visceral malformations”. Besides, the “Fetal anemia (blood flow velocity in the middle cerebral artery)” value in data set [6] (fetal ultrasonography during pregnancy, tacrolimus 4 then 5 mg/day) is “corresponded to the number of weeks; also recorded: without observing any fetal anemia; also recorded: fetal anemia was not developed during the entire course of pregnancy”. Moreover, the “Establishment of pregnancy by embryo transplantation” value in data set [6] (person, infecundity after five unsuccessful embryo transplantations, Th1/Th2 24.9, tacrolimus 4 mg/day oral) was “Pregnancy was established by a single embryo transplantation”. In addition, the “Pregnancy progress in RhD incompatible pregnancy” value in data set [6] (without using plasma exchange, data not shown) is on record as “satisfactory pregnancy progress was obtained”. Also, the “Anti-D antibody titer in the cord blood” value in data set [7] (cord blood at delivery) is recorded as “double”. Besides, in data set [7] (immediately after the establishment of pregnancy), the Anti-D antibody titer amounted to 4 fold. The Anti-D antibody titer in data set [7] (week 24 of pregnancy) is on record as 16 fold. The Anti-D antibody titer in data set [7] (week 26 of pregnancy) is 32 fold.
For the compound heparin, the “Outcome of earlier treatment” value in data set [1] was “not successful”.
